According to ChEMBL document CHEMBL5360545, “Multitargeted drug design strategy for discovery of short-peptide-based HIV-1 entry inhibitors with high potency” (Eur J Med Chem, 2023):
Active and inactive are the calls of the source. The rule behind the calls is not given here. Side chains are listed from the residue outwards. Peptide text beside a SMILES is read from it. * marks the point of attachment. X2 = CC(=O)N1CCC(C(=O)N(CCCN2C3CCC2CC(NS(=O)(=O)c2ccc(C(=O)*)cc2)C3)c2ccc(C)c(Cl)c2)CC1; X1 = CC(=O)N1CCC(C(=O)N(CCCN2CCC(Cc3ccc(C(=O)*)cc3)CC2)c2ccc(C)c(Cl)c2)CC1; PEG12 = NCCOCCOCCOCCOCCOCCOCCOCCOCCOCCOCCOCCOCCC(=O)O

What was measured:
[1] = tested on: Human immunodeficiency virus 1; assay: Antiviral activity against HIV-1 Bal-R5 infected in human CEMx174 5.25M7 cells assessed as reduction in p24 antigen level measured after 4 days by ELISA; assay type: functional, organism-based; settings: Human immunodeficiency virus 1, Bal-R5, CEMx174 5.25M7, 96 h
[2] = tested on: Human immunodeficiency virus 1; assay: Antiviral activity against HIV-1 clinical isolate R5-91US-4 infected in human CEMx174 5.25M7 cells assessed as reduction in p24 antigen level measured after 4 days by ELISA; assay type: functional, organism-based; settings: Human immunodeficiency virus 1, clinical isolate R5-91US-4, CEMx174 5.25M7, 96 h
[3] = tested on: Human immunodeficiency virus 1; assay: Antiviral activity against HIV-1 clinical isolate R5-J32228M4 infected in human CEMx174 5.25M7 cells assessed as reduction in p24 antigen level measured after 4 days by ELISA; assay type: functional, organism-based; settings: Human immunodeficiency virus 1, clinical isolate R5-J32228M4, CEMx174 5.25M7, 96 h
[4] = tested on: Human immunodeficiency virus 1; assay: Antiviral activity against HIV-1 clinical isolate X4-92UG024 infected in human CEMx174 5.25M7 cells assessed as reduction in p24 antigen level measured after 4 days by ELISA; assay type: functional, organism-based; settings: Human immunodeficiency virus 1, clinical isolate X4-92UG024, CEMx174 5.25M7, 96 h
[5] = tested on: Human immunodeficiency virus 1; assay: Antiviral activity against HIV-1 clinical isolate X4-89BZ167 infected in human CEMx174 5.25M7 cells assessed as reduction in p24 antigen level measured after 4 days by ELISA; assay type: functional, organism-based; settings: Human immunodeficiency virus 1, clinical isolate X4-89BZ167, CEMx174 5.25M7, 96 h
[6] = tested on: Human immunodeficiency virus 1; assay: Antiviral activity against HIV-1 clinical isolate 97 TH-NP1525 infected in human CEMx174 5.25M7 cells assessed as reduction in p24 antigen level measured after 4 days by ELISA; assay type: functional, organism-based; settings: Human immunodeficiency virus 1, clinical isolate 97 TH-NP1525, CEMx174 5.25M7, 96 h
[7] = biological target: Envelope glycoprotein gp160 (Human immunodeficiency virus 1) (UniProt Q72502); assay: Binding affinity to HIV1 GP41 using GP41 NHR derived N39 peptide assessed as melting temperature incubated for 30 mins by circular dichroism spectroscopy
[8] = biological target: Envelope glycoprotein gp160 (Human immunodeficiency virus 1) (UniProt Q72502); assay: Binding affinity to HIV1 GP41 using GP41 NHR derived N39 peptide at 100 uM incubated for 30 mins by PAGE gel electrophoresis analysis
[9] = biological target: Envelope glycoprotein gp160 (Human immunodeficiency virus 1) (UniProt Q72502); assay: Binding affinity to HIV1 GP41 using GP41 NHR derived N39 peptide assessed as binding constant by isothermal titration calorimetry
[10] = biological target: Envelope glycoprotein gp160 (Human immunodeficiency virus 1) (UniProt Q72502); assay: Binding affinity to HIV1 GP41 using GP41 NHR derived N39 peptide assessed as change in enthalpy by isothermal titration calorimetry
[11] = biological target: Envelope glycoprotein gp160 (Human immunodeficiency virus 1) (UniProt Q72502); assay: Binding affinity to HIV1 GP41 using GP41 NHR derived N39 peptide assessed as change in entropy by isothermal titration calorimetry
[12] = biological target: C-C chemokine receptor type 5 (Homo sapiens, UniProt P51681); assay: Antagonist activity at CCR5 (unknown origin) expressed in HEK293 cells co-expressing Galpha16 assessed as intracellular calcium change incubated for 60 mins by Fluo-4 AM calcium flux based FLIPR assay; assay type: functional, cell-based
[13] = Proteolytic stability in rat liver assessed as parent compound remaining incubated for 4 hrs by RP-UHPLC analysis; assay type: ADME, tissue-based; settings: read-out: Stability
[14] = Proteolytic stability in rat kidney incubated upto 240 mins by RP-UHPLC analysis; assay type: ADME, tissue-based; settings: 4 h
[15] = Proteolytic stability in rat plasma assessed as parent compound remaining incubated for 4 hrs by RP-UHPLC analysis; assay type: ADME, cell-free; settings: read-out: Stability

Sequence of C-C chemokine receptor type 5 (P51681 whole entry): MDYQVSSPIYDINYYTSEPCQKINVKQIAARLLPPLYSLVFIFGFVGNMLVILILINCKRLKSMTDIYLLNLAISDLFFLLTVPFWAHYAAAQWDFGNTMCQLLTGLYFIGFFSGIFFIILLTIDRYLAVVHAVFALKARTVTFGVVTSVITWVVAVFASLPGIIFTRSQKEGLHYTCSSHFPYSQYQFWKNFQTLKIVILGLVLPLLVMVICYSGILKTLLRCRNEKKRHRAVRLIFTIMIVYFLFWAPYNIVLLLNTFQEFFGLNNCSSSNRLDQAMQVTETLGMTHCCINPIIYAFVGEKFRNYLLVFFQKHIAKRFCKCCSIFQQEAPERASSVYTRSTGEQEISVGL

Compound: CC[C@H](C)[C@H](NC(C)=O)C(=O)N[C@@H](CCC(=O)O)C(=O)N[C@@H](CCC(=O)O)C(=O)N[C@@H](CC(C)C)C(=O)N[C@H](C(=O)N[C@@H](CCCNC(=N)N)C(=O)N[C@@H](C)C(=O)N[C@@H](C)C(=O)N[C@@H](CCC(N)=O)C(=O)N[C@@H](CCC(=O)O)C(=O)N[C@@H](CCC(N)=O)C(=O)N[C@@H](CCC(N)=O)C(=O)N[C@@H](CCCNC(=N)N)C(=O)N[C@@H](CCCCN)C(=O)N[C@@H](CC(N)=O)C(=O)N[C@@H](CCC(=O)O)C(=O)N[C@@H](CCC(=O)O)C(=O)N[C@@H](C)C(=O)N[C@@H](CC(C)C)C(=O)N[C@@H](CCCNC(=N)N)C(=O)N[C@@H](CCC(=O)O)C(=O)N[C@@H](CC(C)C)C(=O)N[C@@H](CCCCNC(=O)CCOCCOCCOCCOCCOCCOCCOCCOCCOCCOCCOCCOCCNC(=O)c1ccc(CC2CCN(CCCN(C(=O)C3CCN(C(C)=O)CC3)c3ccc(C)c(Cl)c3)CC2)cc1)C(N)=O)[C@@H](C)CC (Ac-IEELIRAAQEQQRKNEEALRELK([PEG12-X1])-NH2)
- EC50 [1]: 0.09 nM
- EC50 [2]: 1.79 nM
- EC50 [3]: 16.2 nM
- EC50 [4]: 1.21 nM
- EC50 [5]: 2.75 nM
- EC50 [6]: 0.33 nM
- Tm [7]: 56 °C
- Activity [8]: Active
- K [9]: 2.1 10^5/M
- deltaH [10]: -1.4 10^4cal/mol
- deltaS [11]: -23.2 cal/mol/deg
- IC50 [12]: 19.2 nM
- remaining at 4 h [13]: > 72%
- Stability [14]: Stable
- remaining at 4 h [15]: 100%

Compound: CC[C@H](C)[C@H](NC(C)=O)C(=O)N[C@@H](CCC(=O)O)C(=O)N[C@@H](CCC(=O)O)C(=O)N[C@@H](CC(C)C)C(=O)N[C@H](C(=O)N[C@@H](CCCNC(=N)N)C(=O)N[C@@H](C)C(=O)N[C@@H](C)C(=O)N[C@@H](CCC(N)=O)C(=O)N[C@@H](CCC(=O)O)C(=O)N[C@@H](CCC(N)=O)C(=O)N[C@@H](CCC(N)=O)C(=O)N[C@@H](CCCNC(=N)N)C(=O)N[C@@H](CCCCN)C(=O)N[C@@H](CC(N)=O)C(=O)N[C@@H](CCC(=O)O)C(=O)N[C@@H](CCC(=O)O)C(=O)N[C@@H](C)C(=O)N[C@@H](CC(C)C)C(=O)N[C@@H](CCCNC(=N)N)C(=O)N[C@@H](CCC(=O)O)C(=O)N[C@@H](CC(C)C)C(=O)N[C@@H](CCCCNC(=O)CCOCCOCCOCCOCCOCCOCCOCCOCCOCCOCCOCCOCCNC(=O)c1ccc(S(=O)(=O)NC2CC3CCC(C2)N3CCCN(C(=O)C2CCN(C(C)=O)CC2)c2ccc(C)c(Cl)c2)cc1)C(N)=O)[C@@H](C)CC (some centres undefined) (Ac-IEELIRAAQEQQRKNEEALRELK([PEG12-X2])-NH2)
- EC50 [1]: 0.16 nM
- EC50 [2]: 1.01 nM
- EC50 [3]: 14.8 nM
- EC50 [4]: 1.24 nM
- EC50 [5]: 2.97 nM
- EC50 [6]: 0.99 nM
- Tm [7]: 56 °C
- Activity [8]: Active
- K [9]: 1.97 10^5/M
- deltaH [10]: -1.5 10^4cal/mol
- deltaS [11]: -27.3 cal/mol/deg
- IC50 [12]: 10.3 nM
- remaining at 4 h [13]: > 72%
- Stability [14]: Stable
